From doi:10.1101/2025.04.10.648175v1 (biorxiv, 2025) come the findings set out here.

What is called Kd is the constant that tells how readily two partners part at equilibrium. The low end stands for tighter binding, the high end for weaker binding.

In one experiment the target is AzoTag1. In words: isothermal titration calorimetry. In kind it is binding. To be noted: 20 mM HEPES-NaOH, 150 mM NaCl, pH 7.5, 25 °C, 0.5% DMSO; one-site model.
Another experiment addresses AzoTag16. Description: isothermal titration calorimetry. To be noted: 20 mM HEPES-NaOH, 150 mM NaCl, pH 7.5, 25 °C, 0.8% DMSO; one-site model. The experiment is classed as binding. A general note: ITC needs no label: the signal is the heat of the interaction.

`CCNC(=O)c1cc(F)c(/N=N\c2c(F)cc(C(=O)NCCOCCOCC(=O)NC)cc2F)c(F)c1` [compound 1, cis-Et-FAzo]: the equilibrium dissociation constant (Kd) on AzoTag1 is 805 ± 22.6 nM.

The compound `CNC(=O)COCCOCCNC(=O)c1cc(F)c(/N=N\c2c(F)cc(C(=O)NCCC(=O)O)cc2F)c(F)c1` [compound 2, cis-Ca-FAzo] had an equilibrium dissociation constant (Kd) at AzoTag16 of 14.03 ± 0.02 nM.
